Source: PMC4661079 (Bioorganic & medicinal chemistry, 2015)

Experiments:
TAK1 = target: T1, TAK1 (Homo sapiens, UniProt O43318); experiment: in vitro TAK1 inhibition assay; format: biochemical; details: for TAK1 inhibitory activity, result in words: in vitro TAK1 inhibition
T1 sequence (O43318 1-303 limits assumed): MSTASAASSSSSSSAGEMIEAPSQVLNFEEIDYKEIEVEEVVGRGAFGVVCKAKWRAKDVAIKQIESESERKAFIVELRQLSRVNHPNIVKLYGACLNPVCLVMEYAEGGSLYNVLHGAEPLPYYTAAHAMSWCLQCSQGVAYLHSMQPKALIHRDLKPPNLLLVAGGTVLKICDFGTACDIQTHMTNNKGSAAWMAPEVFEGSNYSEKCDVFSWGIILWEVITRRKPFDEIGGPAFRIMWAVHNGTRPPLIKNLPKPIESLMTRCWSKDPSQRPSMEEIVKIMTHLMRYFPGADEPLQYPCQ
T1 sequence (Q15750 437-504 partner limits assumed): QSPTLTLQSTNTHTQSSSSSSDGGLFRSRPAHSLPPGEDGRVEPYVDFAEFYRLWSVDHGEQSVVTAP

85 kinases = details: 1 μM concentration; ref 14 (Wu et al.); cited from earlier work

Structure (SMILES) | TAK1 inhibitory activity, result in words (TAK1) | other results
COc1cc(O)c2c(c1)/C=C/C[C@H](O)[C@H](O)[C@@H](O)/C=C/C[C@H](C)OC2=O [Compound 3, zeaenol] | loss of activity | –
COC1=CC(=O)C2=C(/C=C/C[C@H](O)[C@H](O)C(=O)/C=C\C[C@H](C)OC2=O)C1(F)F [Compound 11, (3S,5Z,8S,9S,11E)-13,13-Difluoro-8,9-dihydroxy-14-methoxy-3-methyl-3,4,9,10-tetrahydro-1H benzo[c][1]oxacyclotetradecine-1,7,16(8H,13H)-trione] | statistically equipotent to 1 | IC50 (TAK1): 77 nM
COc1cc(O)c2c(c1)/C=C/C[C@H](O)[C@H](O)C(=O)/C=C\C[C@H](C)OC2=O [Compound 1, (5Z)-7-oxozeaenol] | – | number of kinases with at least 50% inhibition out of 85 kinases tested (85 kinases): 12
COc1cc(O)c2c(c1Br)/C=C/C[C@H](O)[C@H](O)C(=O)/C=C\C[C@H](C)OC2=O [Compound 13, (3S,5Z,8S,9S,11E)-13-Bromo-8,9,16-trihydroxy-14-methoxy-3-methyl-3,4,9,10-tetrahydro-1H-benzo[c][1]oxacyclotetradecine-1,7(8H)-dione] | – | times less active than difluoro derivative 11 (TAK1; TAK1 inhibition, compared with 11): 5 times
CC=C/C=C\C(=O)[C@@H](O)[C@@H](O)C/C=C/c1cc(OC)cc(OC)c1C(=O)OC (stereo in doubt) [Compound 10, Methyl 2-((1E,4S,5S,7Z,9Z)-4,5-dihydroxy-6-oxoundeca-1,7,9-trien-1-yl)-4,6-dimethoxybenzoate] | inability | –
COc1cc(O)c2c(c1)[C@H]1O[C@@H]1C[C@H](O)[C@H](O)C(=O)CCC[C@H](C)OC2=O [Compound 5, dihydrohypothemycin] | loss of activity | –
COc1c(Br)c(O)c2c(c1Br)/C=C/C[C@H](O)[C@H](O)C(=O)/C=C\C[C@H](C)OC2=O [Compound 14, (3S,5Z,8S,9S,11E)-13,15-Dibromo-8,9,16-trihydroxy-14methoxy-3-methyl-3,4,9,10-tetrahydro-1H-benzo[c][1]oxacyclotetradecine-1,7(8H)-dione] | least active | –
COc1cc2c(c(O)c1Br)C(=O)O[C@@H](C)C/C=C\C(=O)[C@@H](O)[C@@H](O)C/C=C/2 [Compound 12, (3S,5Z,8S,9S,11E)-15-Bromo-8,9,16-trihydroxy-14-methoxy-3-methyl-3,4,9,10-tetrahydro-1H-benzo[c][1]oxacyclotetradecine-1,7(8H)-dione] | significantly less active | –
COc1cc(O)cc2c1C(=O)O[C@@H](C)CCCCC/C=C/C(=O)C2 [Compound 8, greensborone C] | diminished activity | –
COc1cc(O)c2c(c1)/C=C/C[C@H](O)[C@H](O)C(=O)CCC[C@H](C)OC2=O [Compound 7, LL-Z164-1] | loss of activity | –
COc1cc(O)c2c(c1)/C=C/C[C@@H]1OC(C)(C)O[C@@H]1C(=O)/C=C\C[C@H](C)OC2=O [Compound 16, (3aS,5Z,8S,15E,17aS)-11-Hydroxy-13-methoxy-2,2,8-trimethyl-7,8,17,17a-tetrahydro-4H-benzo[c][1,3]dioxolo[4,5-h][1]oxacyclotetradecine-4,10(3aH)-dione] | – | reduction of TAK1 inhibitory activity relative to 1 (TAK1; compared with 1): more than 30 fold
